Source: patent US20150183743A1, “COMPOUND AND USE OF COMPOUND TO PREPARE A RADIOLABELLED COMPOUND” (STICHTING VU-VUMC, priority 2012, published 2015)
Counter-ions that a name gives are not always drawn.

How the values were obtained:
[1] = Biodistribution of [11C]HC-242 in anaesthetized mice; type: in vivo, B6C3F1/J mice
Method: Animals were anaesthetized with a 1:2:1 mixture of ffm [fentanyl/fluanisone (Hypnorm™; Vetapharma, Leeds, UK), sterile water, midazolam (Dormicum™; Actavis, Harnarfjordur, Iceland)]. The anaesthetic was administered intraperitoneally (11 ml/kg), 5 min prior to radiotracer administration. […] Following the injections, mice were killed by cervical dislocation at 5, 15, 30, or 60 min (n=4/time point). At each time point, blood was obtained by heart punctures and selected organs, including the heart, liver, kidneys, lungs and brain were removed. The brain was further dissected into frontal cortex, olfactory tubercle, striatum, cerebral cortex (bregma 1.70-0.02 mm), entorhinal cortex, hippocampus, hypothalamus, cerebellum, and pons/medulla oblongata. All organs and brain areas were weighed, and recovered radioactivity was determined in a 1282 Compugamma CS (LKB Wallac, Turku, Finland), using 5×10 μl aliquots of the injected formulation as standard. Results are expressed as the differential absorption ratio (DAR): (cpm recovered/g tissue)/(cpm injected/g body weight). Two-way repeated measures ANOVA, followed by Fisher's LSD post-hoc comparisons, was used for analysis of radiotracer uptake in different brain regions (or organs), at different time points.

[2] = molecular target: T1, NR2B site of NMDA receptors (Mus musculus, UniProt P35438+Q01097); test: In vitro autoradiography of [11C]HC-242 on mouse brain sections (non-specific: 1 μM Ro25-6981); type: binding, B6C3F1/J mice
T1 construct: from tissue; host or cells: mouse brain (sections in vitro; whole brain in vivo)
T1 sequence (Q01097 27-1482, other chains not shown): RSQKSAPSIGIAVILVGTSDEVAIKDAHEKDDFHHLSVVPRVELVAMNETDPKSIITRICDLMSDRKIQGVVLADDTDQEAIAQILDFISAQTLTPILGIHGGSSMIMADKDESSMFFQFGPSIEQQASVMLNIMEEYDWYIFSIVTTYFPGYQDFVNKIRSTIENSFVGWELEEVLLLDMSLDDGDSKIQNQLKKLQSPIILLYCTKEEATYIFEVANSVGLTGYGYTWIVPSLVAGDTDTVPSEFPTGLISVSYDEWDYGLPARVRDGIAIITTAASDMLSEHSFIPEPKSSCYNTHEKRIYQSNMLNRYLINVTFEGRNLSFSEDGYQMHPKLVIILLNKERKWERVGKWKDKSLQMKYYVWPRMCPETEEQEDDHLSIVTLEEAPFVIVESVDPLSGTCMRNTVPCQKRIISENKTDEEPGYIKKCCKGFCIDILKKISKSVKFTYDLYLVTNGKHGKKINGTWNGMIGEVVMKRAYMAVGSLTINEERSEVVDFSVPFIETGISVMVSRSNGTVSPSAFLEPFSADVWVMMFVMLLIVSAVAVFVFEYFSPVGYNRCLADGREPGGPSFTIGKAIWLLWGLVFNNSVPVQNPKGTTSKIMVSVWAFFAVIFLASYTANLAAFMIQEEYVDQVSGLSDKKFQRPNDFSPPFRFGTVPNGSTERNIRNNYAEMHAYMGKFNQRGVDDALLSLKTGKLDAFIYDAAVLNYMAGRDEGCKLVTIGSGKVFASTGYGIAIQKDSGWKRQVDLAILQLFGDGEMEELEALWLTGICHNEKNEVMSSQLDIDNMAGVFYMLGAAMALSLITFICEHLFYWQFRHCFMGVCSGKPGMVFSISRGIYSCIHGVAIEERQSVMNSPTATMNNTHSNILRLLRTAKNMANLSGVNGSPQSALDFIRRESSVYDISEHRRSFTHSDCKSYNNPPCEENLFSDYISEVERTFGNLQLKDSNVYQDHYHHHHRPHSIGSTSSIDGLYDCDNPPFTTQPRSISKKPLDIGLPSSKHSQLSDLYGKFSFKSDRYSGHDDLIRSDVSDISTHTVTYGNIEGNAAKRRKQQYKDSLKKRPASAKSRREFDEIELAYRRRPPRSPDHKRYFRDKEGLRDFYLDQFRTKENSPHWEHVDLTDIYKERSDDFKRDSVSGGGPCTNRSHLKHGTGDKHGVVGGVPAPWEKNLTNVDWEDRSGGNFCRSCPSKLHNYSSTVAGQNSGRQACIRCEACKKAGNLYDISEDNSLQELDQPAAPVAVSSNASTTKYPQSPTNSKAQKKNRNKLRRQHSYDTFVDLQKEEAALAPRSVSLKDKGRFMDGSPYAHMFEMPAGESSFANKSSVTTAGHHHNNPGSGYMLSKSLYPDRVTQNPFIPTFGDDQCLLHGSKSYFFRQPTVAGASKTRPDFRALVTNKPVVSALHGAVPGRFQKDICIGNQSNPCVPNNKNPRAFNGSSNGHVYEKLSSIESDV
Method: 20 μm thick coronal brain sections were thawed from −20° C. to room temperature, pre-washed 2×10 min in assay buffer (50 mM Tris-HCl, pH 7.4), and dried. […] To determine non-specific binding, a series of immediately adjacent brain sections was incubated in the same buffer, in the presence of 1 μM Ro25-6981. Incubations were terminated by 1 min washing into ice-cold assay buffer (pH 7.4), followed by a rapid rinse in ice-cold demi water. The sections were then air dried and opposed overnight to Kodak BioMax MR-1 film, which was developed in Kodak D19 developer and fixed with Kodak rapid fixer (Sigma-Aldrich, Zwijndrecht, the Netherlands). […] Specific binding was quantified following the subtraction of […] binding images.

[3] = molecular target: T1, NR2B site of NMDA receptors; test: Blocking of [11C]HC-242 brain uptake by Ro25-6981 in anaesthetized mice (ex vivo autoradiography); parameters: species or system B6C3F1/J mice; conditions: for mean % change: blocked (Ro25-6981) vs unblocked
Method: 15 min after radiotracer injection, mice were killed by cervical dislocation, and the brains were removed, frozen in liquid nitrogen and processed for quantitative autoradiography. 20 μm coronal brain sections from control and Ro25-6981 treated mice were obtained at −21° C. in a Leica CM3050S cryostat (Leica Microsystems, Rijswijk, the Netherlands), and were immediately opposed to phosphor storage screens. The screens were read in a Storm™ 860 Phosphorimager on the following day, and the images obtained were analyzed using ImageQuant TL 8.1 software (GE Healthcare Europe GmbH, Diegem, Belgium). A series of immediately adjacent brain sections were opposed to Kodak Biomax MR-1 film, which was developed after overnight exposure, to obtain high resolution images. […] Analysis of radiotracer uptake in control and blocked mice across different brain regions was performed using two-way ANOVA.

[4] = Determination of Log Doct,7.4; type: physicochemical; conditions: 1-octanol / 0.2M phosphate buffer pH 7.4, room temperature, triplicate
Method: The distribution of the radio labelled compounds between 1-octanol and 0.2M phosphate buffer (pH=7.4) was measured in triplicate at room temperature. Briefly, 1 mL of a 20 MBq/mL solution of the radio labelled compound in 0.2M phosphate buffer (pH=7.4) was vigorously mixed with 1 mL of 1-octanol for 1 min at room temperature using a vortex. After a settling period of 30 min, five samples of 100 μL were taken from both layers. For determining recovery, 5 samples of 100 μL were taken from the 20 MBq/mL solution. All samples were counted for radioactivity. The Log Doct,7.4 value was calculated according to Log Doct,7.4=^10Log(Aoct/Abuffer), where Aoct and Abuffer represent the average radioactivity counted of the 5 1-octanol and 5 buffer samples, respectively.

[5] = molecular target: T2, ifenprodil binding site of NR2B subunit containing NMDA receptors (Rattus norvegicus, UniProt P35439+Q00960); test: Competition binding assay against [3H]ifenprodil on rat forebrain membranes; conditions: displacement of 5 nM [3H]ifenprodil; mean±SEM of 2-6 determinations in triplicate
T2 construct: 400 μl of the membrane suspension, containing a total amount of 2.5 mg original wet weight of tissue; from tissue; host or cells: rat forebrain membranes
T2 sequence (Q00960 27-1482, other chains not shown): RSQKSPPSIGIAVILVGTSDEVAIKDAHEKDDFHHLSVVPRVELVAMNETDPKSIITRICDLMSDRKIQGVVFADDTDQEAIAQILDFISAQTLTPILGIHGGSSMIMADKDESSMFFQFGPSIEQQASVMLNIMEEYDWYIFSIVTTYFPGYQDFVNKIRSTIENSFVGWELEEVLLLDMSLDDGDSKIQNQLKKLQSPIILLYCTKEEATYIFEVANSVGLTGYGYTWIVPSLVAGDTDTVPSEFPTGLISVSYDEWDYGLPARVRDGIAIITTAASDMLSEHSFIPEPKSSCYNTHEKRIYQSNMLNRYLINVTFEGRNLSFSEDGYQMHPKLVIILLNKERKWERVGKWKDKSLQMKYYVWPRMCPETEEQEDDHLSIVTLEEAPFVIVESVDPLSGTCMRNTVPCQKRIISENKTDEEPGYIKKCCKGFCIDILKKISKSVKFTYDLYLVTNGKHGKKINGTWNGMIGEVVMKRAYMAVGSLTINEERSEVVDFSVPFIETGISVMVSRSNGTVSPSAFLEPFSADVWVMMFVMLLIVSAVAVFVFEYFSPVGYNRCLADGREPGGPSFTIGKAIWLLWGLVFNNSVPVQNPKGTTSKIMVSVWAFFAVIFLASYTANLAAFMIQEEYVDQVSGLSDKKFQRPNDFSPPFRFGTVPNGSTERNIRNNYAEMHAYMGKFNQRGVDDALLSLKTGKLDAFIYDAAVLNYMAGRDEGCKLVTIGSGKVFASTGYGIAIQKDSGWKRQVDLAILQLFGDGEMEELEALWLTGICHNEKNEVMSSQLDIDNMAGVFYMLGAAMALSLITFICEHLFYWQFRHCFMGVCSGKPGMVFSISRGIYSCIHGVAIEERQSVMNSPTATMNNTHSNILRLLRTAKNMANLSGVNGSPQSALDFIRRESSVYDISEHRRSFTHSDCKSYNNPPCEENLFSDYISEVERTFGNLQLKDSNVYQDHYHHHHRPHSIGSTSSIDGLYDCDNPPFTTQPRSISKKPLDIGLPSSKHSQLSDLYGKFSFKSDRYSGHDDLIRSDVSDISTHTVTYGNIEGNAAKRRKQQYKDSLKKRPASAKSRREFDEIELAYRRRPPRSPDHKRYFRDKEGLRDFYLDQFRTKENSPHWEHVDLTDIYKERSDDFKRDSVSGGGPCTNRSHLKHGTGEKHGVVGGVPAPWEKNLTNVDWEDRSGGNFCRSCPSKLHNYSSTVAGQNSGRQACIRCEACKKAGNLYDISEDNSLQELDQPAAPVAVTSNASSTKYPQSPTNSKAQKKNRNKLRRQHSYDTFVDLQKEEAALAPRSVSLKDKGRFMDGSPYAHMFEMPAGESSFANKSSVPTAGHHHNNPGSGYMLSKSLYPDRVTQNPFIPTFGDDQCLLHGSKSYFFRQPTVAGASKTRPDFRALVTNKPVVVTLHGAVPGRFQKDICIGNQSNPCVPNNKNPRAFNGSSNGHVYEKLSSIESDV
Method: Male Wistar rats (180-200 g) were killed by decapitation. The forebrains were rapidly removed and homogenized using a DUALL tissue homogenizer (10 strokes, 2000 rpm), in a 10-fold excess (v/w) of ice-cold 0.25 M sucrose. The nuclei and cell debris were removed by centrifugation (10 min×400×g), in a Beckman refrigerated ultracentrifuge (rotor 60Ti). The resulting pellet was rehomogenized in 5 vol 0.25 sucrose and recentrifuged. The combined supernatants were diluted in Tris-acetate buffer (50 mM, pH 7.4) to a final dilution of 40 v/w, and centrifuged for 30 min×200,000×g, in order to obtain membranes from the cell surface, mitochondrial, and microsomal fractions. The pellet was resuspended in 20 volumes of Tris-HCl+0.01% Triton buffer (pH 7.4), kept at 37° C. for 10 min, and recentrifuged. The final pellet was suspended in Tris-HCl buffer (dilution 5, pH 7.4), and stored at −80° C. in 5 ml aliquots. On the day of each experiment, membranes were thawed to room temperature and washed twice by centrifugation (30 min×200,000×g). After the final centrifugation, pellets were suspended in 80 volumes (v/w) of 50 mM Tris-HCl buffer (pH 7.4).
Competition binding experiments were carried out on ice, in a final volume of 500 μl assay buffer (50 mM Tris-HCl, pH 7.4), containing 5 μM GBR 12909 to block […] binding. The incubation mixture was composed of 400 μl of the membrane suspension, containing a total amount of 2.5 mg original wet weight of tissue, 50 μl of [^3H]ifenprodil, and 5 μl of unlabelled drug solution (final DMSO concentration: 1%). Nonspecific binding was determined in the presence of 10 μM Ro 25-6981. Incubations were terminated after 2 hr by filtration through 0.3% PEI-embedded Whatman GF/B filters, using a 48-well Brandel harvester. The filters were washed three times with 3 ml of ice cold Tris-HCl buffer (pH 7.4), and radioactivity was determined by liquid scintillation spectrometry in 5 ml of Optiphase-HiSafe 3, at an efficiency of 40%.
Ki values were determined by nonlinear regression analysis using the equation: log EC50=log [10̂log Ki*(1+RadioligandNM/HotKdNM)], (GraphPad Software Inc., San Diego, Calif.).

[11CH3]Oc1cc(F)ccc1-c1cncc(CNC2CCCC2)c1 [[^11C]HC-242, N-((5-(4-fluoro-2-^11C-methoxyphenyl)pyridin-3-yl)methyl)cyclopentanamine]
DAR ([1]; blood, 5 min): 0.04±0.01
DAR ([1]; cerebellum, 15 min): 0.14±0.01
DAR ([1]; cerebral cortex, 15 min): 0.25±0.03
DAR ([1]; entorhinal cortex, 15 min): 0.62±0.22
DAR ([1]; frontal cortex, 15 min): 0.26±0.02
DAR ([1]; heart, 5 min): 0.19±0.04
DAR ([1]; hippocampus, 15 min): 0.33±0.03
DAR ([1]; liver, 5 min): 0.15±0.05
DAR ([1]; pons/medulla oblongata, 15 min): 0.14±0.02
DAR ([1]; striatum, 15 min): 0.24±0.03
mean percentage of specific binding ([2]; across all brain regions analyzed): 24.0±3.5%
Specific labelling ([2]; cerebral cortex, hippocampus, olfactory tubercle, striatum): high
percentage of specific binding ([2]; olfactory tubercle): 39.6±10.4%
Specific labelling ([2]; subthalamic brain regions): absent
Specific labelling ([2]; thalamus): low
percentage of specific binding ([2]; thalamus): 3.3±2.1%
mean % change ([3]; Experiment No 1, [11C]HC-242 23.7 μM at t0): −22.5%
mean % change ([3]; Experiment No 2, [11C]HC-242 2.6 μM at t0): −21.9%
mean % change ([3]; Experiment No 3, [11C]HC-242 14.6 μM at t0): 33.3%
mean decrease in radioactivity uptake induced by Ro25-6981 ([3]; Ro25-6981 10.0 mg/kg i.p. pretreatment, across all brain regions, pairs showing decrease): 22.3±1.9%
mean increase in radioactivity uptake induced by Ro25-6981 ([3]; Ro25-6981 10.0 mg/kg i.p. pretreatment, across all brain regions, pairs showing increase): 29.4±4.2%
logD [4]: 2.14 ± 0.02

Oc1cc(F)ccc1-c1cncc(CNC2CCCC2)c1 [Example 5, 2-(5-((cyclopentylamino)methyl)pyridin-3-yl)-5-fluorophenol]
Ki [5]: 1300 ± 600 nM

FCCOc1cc(F)ccc1-c1cncc(CNC2CCCC2)c1 [Example 7, N-((5-(4-fluoro-2-(2-fluoroethoxyl)phenyl)pyridin-3-yl)methyl)cyclopentanamine dihydrochloride]
Ki [5]: 156 ± 21.8 nM

FCOc1cc(F)ccc1-c1cncc(CNC2CCCC2)c1 [Example 6, N-((5-(4-fluoro-2-(fluoromethoxy)phenyl)pyridin-3-yl)methyl)cyclopentanamine dihydrochloride]
Ki [5]: 15.4 ± 1.3 nM

COc1cc(F)ccc1-c1cncc(CNCC2CC2)c1 [Example 2, 1-cyclopropyl-N-((5-(4-fluoro-2-methoxyphenyl)pyridin-3-yl)methyl)methanamine dihydrochloride]
Ki [5]: 8.7 ± 1.2 nM

COc1cc(F)ccc1-c1cccc(CNCC2CC2)c1 [Example 4, 1-cyclopropyl-N-((4′-fluoro-2′-methoxy-[1,1′-biphenyl]-3-yl)methyl)methanamine hydrochloride]
Ki [5]: 67.7 ± 8.1 nM

Fc1ccc(-c2cncc(CNC3CCCC3)c2)cc1 [Example 10, N-((5-(4-fluorophenyl)pyridin-3-yl)methyl)cyclopentanamine dihydrochloride]
Ki [5]: 3.3 ± 1.9 nM

Fc1ccc(-c2cccc(CNC3CCCC3)c2)cc1 [Example 11, N-((4′-fluoro-[1,1′-biphenyl]-3-yl)methyl)cyclopentanamine hydrochloride]
Ki [5]: 13.1 ± 1.8 nM

Fc1ccc(-c2cncc(CNCC3CC3)c2)cc1 [Example 12, 1-cyclopropyl-N-((5-(4-fluorophenyl)pyridin-3-yl)methyl)methanamine dihydrochloride]
Ki [5]: 2.9 ± 0.3 nM
